From ChEMBL document CHEMBL1159113, “Investigation of Beckett-Casy model 1: synthesis of novel 16,17-seco-naltrexone derivatives and their pharmacology” (Bioorg Med Chem Lett, 2010)

Legend:
[1] = target: Kappa-type opioid receptor (Cavia porcellus, UniProt P41144); assay: Displacement of [3H]U69,593 from kappa opioid receptor in guinea pig cerebellum; type: tissue-based
Mu-type opioid receptor = Mu-type opioid receptor (Cavia porcellus, UniProt P97266); assay: Displacement of [3H]DAMGO from mu opioid receptor in guinea pig forebrain
Sequence of Mu-type opioid receptor (P97266 whole entry): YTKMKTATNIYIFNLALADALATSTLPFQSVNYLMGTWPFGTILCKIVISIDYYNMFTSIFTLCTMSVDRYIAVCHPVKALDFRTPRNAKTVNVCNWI

[2] = Displacement of [3H]NTI from delta opioid receptor in guinea pig forebrain; set-up: species or system Cavia porcellus

Sequence of Kappa-type opioid receptor (P41144 whole entry): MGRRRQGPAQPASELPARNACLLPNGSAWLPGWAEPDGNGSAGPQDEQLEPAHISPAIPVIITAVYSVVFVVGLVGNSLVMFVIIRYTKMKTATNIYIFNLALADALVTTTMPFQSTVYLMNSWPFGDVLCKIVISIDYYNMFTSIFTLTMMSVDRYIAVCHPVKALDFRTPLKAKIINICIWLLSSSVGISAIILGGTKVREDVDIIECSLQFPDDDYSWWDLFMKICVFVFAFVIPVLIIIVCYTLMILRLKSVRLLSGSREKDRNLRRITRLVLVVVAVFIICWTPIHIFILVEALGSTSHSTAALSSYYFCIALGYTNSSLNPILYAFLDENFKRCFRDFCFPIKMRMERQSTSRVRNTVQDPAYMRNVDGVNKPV

| SMILES | IC50 [1] [nM] | IC50 (Mu-type opioid receptor) [nM] | IC50 [2] [nM] | Ki [1] [nM] | Ki (Mu-type opioid receptor) [nM] | Ki [2] [nM] |
| --- | --- | --- | --- | --- | --- | --- |
| CN(CC1CC1)[C@@H]1Cc2ccc(O)c3c2[C@@]2(CCO3)CC(=O)CC[C@@]12O | > 1000 | > 1000 | > 1000 | – | – | – |
| CC[C@]12c3c4ccc(O)c3O[C@H]1C(=O)CC[C@@]2(O)[C@H](NCC1CC1)C4 | – | – | – | 275 | 26.3 | 24.1 |
| CC[C@]12c3c4ccc(O)c3O[C@H]1C(=O)CC[C@@]2(O)[C@H](N(C)CC1CC1)C4 | > 1000 | > 1000 | – | – | – | 77.6 |
| CN(CC1CC1)C1Cc2ccc(O)c3c2[C@@]2(CCn4ccnn4)[C@@H](O3)C(=O)CC[C@@]12O (stereo partly specified) | > 1000 | > 1000 | > 1000 | – | – | – |
| CN(CC1CC1)[C@@H]1Cc2ccc(O)c3c2[C@]24CCO[C@]12CCC(=O)[C@@H]4O3 | > 1000 | – | – | – | 24 | 43.2 |
| C=C[C@]12c3c4ccc(O)c3O[C@H]1C(=O)CC[C@@]2(O)[C@H](NCC1CC1)C4 | – | – | – | 193 | 8.6 | 4.73 |
| C=C[C@]12c3c4ccc(O)c3O[C@H]1C(=O)CC[C@@]2(O)[C@H](N(C)CC1CC1)C4 | – | – | – | 200 | 26.4 | 39.7 |
